Data: patent publication US20260041670A1, “DRUGS FOR PREVENTING AND/OR TREATING ALZHEIMER'S DISEASE” (SHENZHEN UNIVERSITY OF ADVANCED TECHNOLOGY, priority 2023, published 2026)
≈ marks a conversion by molar mass, not a printed value. Where two headings read alike, the source gives them in different places.

Assays:
[1] = Stability in hepatocytes (human); assay type: in vitro ADME; details: hepatocytes
Aβ42 = experiment: ELISA of Aβ42 in brain tissues; assay type: in vivo; details: 3×Tg mice, gavage 3 months
Experimental: FIG. 9i illustrates quantitative analysis of Aβ42 in brain tissues by an enzyme-linked immunosorbent assay (ELISA) (n=3, one-way ANOVA) (data are represented by mean±SD; […], ***p<0.005, ****p≤0.0001).
(§1) To investigate whether long-term chronic treatment with #2-NP alleviates cognitive deficits in 3×Tg AD model mice, mice were administered via gavage with #2 at 3 mg/kg, #2-NP at 3 mg/kg, and #2-NP at 10 mg/kg. […] The recognition index was increased by #2-NP in a dose-dependent manner (FIGS. 9a and b). […] Additionally, quantitative analysis of Aβ PET signals was performed using the specific ligand [18F] […] Collectively, #2-NP decreases cerebral Aβ deposition, reduces brain atrophy, and ameliorates cognitive deficits in 3×Tg mice.

Aβ = experiment: IHC staining of Aβ in brain sections; assay type: in vivo; details: 3×Tg mice, gavage 3 months
Experimental: FIG. 9e illustrates immunohistochemical (IHC) staining of Aβ in brain sections of 3×Tg mice, with a scale bar=50 μm.
FIG. 9f illustrates a quantitative diagram of FIG. 9e (n=6, one-way ANOVA).
as §1

[2] = ICR, mouse, in vivo
Experimental: (§2) FIG. 6b illustrates plasma concentrations following administration of #2 or #2-NP. ICR mice are divided into four groups, which are administered with #2 at 2 mg/kg (intravenous injection, IV), #2 at 5 mg/kg (oral administration, PO), #2-NP at 5 mg/kg (PO), and #2-NP at 10 mg/kg (PO). Blood samples are collected from all three mice of each group at corresponding time points, and concentrations of #2 are quantitatively analyzed by a liquid chromatography-tandem mass spectrometry (LC-MS/MS). Cmax: maximum plasma concentration; Tmax: time to maximum concentration; T½: terminal elimination half-life; AUC: area under curves; MRT: mean residence time; CL: clearance; and F: relative oral bioavailability.
(§3) FIG. 13a illustrates plasma concentrations and PK parameters of #2 quantitatively analyzed by LC-MS/MS after IG administration of #2, #2-NP, and #2-LIP at 5 mg/kg, as well as IN administration of #2 and #2-LIP at 5 mg/kg (n=3; data are represented by mean±SD).
(§4) FIG. 13b illustrates brain concentrations and PK parameters of #2 quantitatively analyzed by LC-MS/MS after IG administration of #2, #2-NP, and #2-LIP at 5 mg/kg, as well as IN administration of #2 and #2-LIP at 5 mg/kg (n=3; data are represented by mean±SD).
(§5) To investigate the in vivo PK profile of #2-NP, lyophilized #2-NP powder was redissolved. […] For quantitative comparison of the effects of the nanoparticle system in delivering #2 to the blood circulation system and brain tissues, PK studies were performed in 2-month-old ICR mice.

[3] = Plasma protein binding (human); assay type: in vitro ADME; details: plasma, read-out: Plasma Protein Binding Fu, plasma
[4] = Stability in hepatocytes (mouse); assay type: in vitro ADME; details: hepatocytes
hERG = hERG (Homo sapiens, UniProt Q12809); experiment: hERG inhibition
p-TrkB Y816 = experiment: Immunofluorescent staining of p-TrkB in brain sections; assay type: in vivo; details: 3×Tg mice, IF staining
Description: FIG. 11a illustrates immunofluorescent (IF) staining of p-TrkB and microtubule-associated protein 2 (MAP2) in brain tissues of 3×Tg mice, with a scale bar=50 μm.
FIG. 11e illustrates quantification of p-TrkB intensities in the hippocampus (n=6, one-way ANOVA) (data are represented by mean±SD; ns represents no statistically significant difference, *p<0.05, **p<0.01, ***p<0.001).
To further analyze the therapeutic effects of #2-NP against AD pathology, immunofluorescent (IF) staining of p-TrkB was performed on brain sections from drug-treated 3×Tg mice. […] Consequently, p-AEP IF signals were closely correlated with the upstream p-TrkB activity (FIGS. 11b & f). Simultaneously, active AEP IF staining was inversely coupled with the p-AEP activity, thereby leading to a progressive decline in APP C585 levels. Consistent with these findings, Tau N368 signals and AT8 IF intensity were closely correlated with each other (FIGS. 7C & D). Quantitative analysis of the fluorescence intensity confirmed these observations (FIGS. 11g-j).

[5] = Stability in plasma (mouse); assay type: in vitro ADME; details: plasma, read-out: Stability-Plasma T1/2
Permeability PAMPA-BBB = assay type: in vitro ADME; details: PAMPA; read-out: Permeability-PAMPA-BBB Pe
in vivo = details: ICR, mouse
Experimental: as §2, §3, §4, §5

[6] = Stability in microsomes (mouse); assay type: in vitro ADME; details: liver microsomes
3×Tg mice = experiment: MRI cerebral cortex volume; assay type: in vivo; details: gavage 3 months
Experimental: FIG. 9c illustrates representative T2-weighted magnetic resonance imaging (MRI) scanning images of 3×Tg mice, with cortical regions of interest (ROI) marked by red lines.
FIG. 9d illustrates a quantified cerebral cortex volume of ROI (n=3, one-way ANOVA).
as §1

[7] = Stability in plasma (human); assay type: in vitro ADME; details: plasma, read-out: Stability-Plasma T1/2
Solubility (pH 7.4; PBS) = assay type: physicochemical; details: aqueous buffer
TrkB = biological target: T1, TrkB (Homo sapiens, UniProt Q16620); experiment: Pro-survival MTT assay after staurosporine-induced apoptosis in BR6 and T48 cells; assay type: cell-based; details: STS 100 nM, 24 h, in words, relative to CF3CN
T1 construct: expressed in transfected cells; host or cells: human SH-SY5Y cells (BR6/Br6) and T48 cells
Experimental: FIG. 1b illustrates EC50 values of CF3CN and derivatives thereof. BR6 and T48 cells are treated with staurosporine (STS) (100 nM) and TrkB agonists. CF3CN and compounds #1-4 are added in a dose-dependent manner at concentrations of 0, 5, 10, 50, 100, 500, and 1,000 nM. After 24 h, an MTT assay is performed, and EC50 values are calculated using Prism software (n=3; data are represented by mean±standard deviation (SD)).
The pro-survival effects of four derivatives were quantitatively analyzed in human SH-SY5Y cells and T48 cells stably transfected with the TrkB. […] As PLCγ1 bound with a p-Y816 residue on the TrkB receptor and was subsequently tyrosine-phosphorylated by active TrkB, a tyrosine phosphorylation signal was also monitored in this example (FIG. 1c).

[8] = Plasma protein binding (mouse); assay type: in vitro ADME; details: plasma, read-out: Plasma Protein Binding Fu, plasma
[9] = read-out: Stability-Hepatocytes CL
[10] = read-out: Stability-Hepatocytes T1/2

T1 sequence (Q16620 32-822, species assumed): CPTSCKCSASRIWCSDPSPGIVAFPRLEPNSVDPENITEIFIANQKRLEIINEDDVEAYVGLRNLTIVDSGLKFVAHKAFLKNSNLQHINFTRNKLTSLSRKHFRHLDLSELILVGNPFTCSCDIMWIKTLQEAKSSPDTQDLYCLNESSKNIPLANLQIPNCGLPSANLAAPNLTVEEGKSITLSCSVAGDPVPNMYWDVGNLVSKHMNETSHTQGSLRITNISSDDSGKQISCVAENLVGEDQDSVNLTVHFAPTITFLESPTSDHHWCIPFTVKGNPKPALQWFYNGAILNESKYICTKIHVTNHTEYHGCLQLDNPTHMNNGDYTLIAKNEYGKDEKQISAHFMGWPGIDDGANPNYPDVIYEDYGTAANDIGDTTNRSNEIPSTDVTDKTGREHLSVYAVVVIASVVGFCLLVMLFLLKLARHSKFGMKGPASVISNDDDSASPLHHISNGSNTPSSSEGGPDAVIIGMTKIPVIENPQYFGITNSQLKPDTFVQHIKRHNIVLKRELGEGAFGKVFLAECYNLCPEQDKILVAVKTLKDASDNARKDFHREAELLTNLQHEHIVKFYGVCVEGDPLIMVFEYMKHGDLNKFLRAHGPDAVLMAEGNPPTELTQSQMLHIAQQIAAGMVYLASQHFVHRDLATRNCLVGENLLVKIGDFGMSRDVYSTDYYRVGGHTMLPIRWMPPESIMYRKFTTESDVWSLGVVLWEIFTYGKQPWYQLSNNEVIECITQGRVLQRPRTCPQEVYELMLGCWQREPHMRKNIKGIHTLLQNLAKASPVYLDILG
Sequence of hERG (Q12809 whole entry): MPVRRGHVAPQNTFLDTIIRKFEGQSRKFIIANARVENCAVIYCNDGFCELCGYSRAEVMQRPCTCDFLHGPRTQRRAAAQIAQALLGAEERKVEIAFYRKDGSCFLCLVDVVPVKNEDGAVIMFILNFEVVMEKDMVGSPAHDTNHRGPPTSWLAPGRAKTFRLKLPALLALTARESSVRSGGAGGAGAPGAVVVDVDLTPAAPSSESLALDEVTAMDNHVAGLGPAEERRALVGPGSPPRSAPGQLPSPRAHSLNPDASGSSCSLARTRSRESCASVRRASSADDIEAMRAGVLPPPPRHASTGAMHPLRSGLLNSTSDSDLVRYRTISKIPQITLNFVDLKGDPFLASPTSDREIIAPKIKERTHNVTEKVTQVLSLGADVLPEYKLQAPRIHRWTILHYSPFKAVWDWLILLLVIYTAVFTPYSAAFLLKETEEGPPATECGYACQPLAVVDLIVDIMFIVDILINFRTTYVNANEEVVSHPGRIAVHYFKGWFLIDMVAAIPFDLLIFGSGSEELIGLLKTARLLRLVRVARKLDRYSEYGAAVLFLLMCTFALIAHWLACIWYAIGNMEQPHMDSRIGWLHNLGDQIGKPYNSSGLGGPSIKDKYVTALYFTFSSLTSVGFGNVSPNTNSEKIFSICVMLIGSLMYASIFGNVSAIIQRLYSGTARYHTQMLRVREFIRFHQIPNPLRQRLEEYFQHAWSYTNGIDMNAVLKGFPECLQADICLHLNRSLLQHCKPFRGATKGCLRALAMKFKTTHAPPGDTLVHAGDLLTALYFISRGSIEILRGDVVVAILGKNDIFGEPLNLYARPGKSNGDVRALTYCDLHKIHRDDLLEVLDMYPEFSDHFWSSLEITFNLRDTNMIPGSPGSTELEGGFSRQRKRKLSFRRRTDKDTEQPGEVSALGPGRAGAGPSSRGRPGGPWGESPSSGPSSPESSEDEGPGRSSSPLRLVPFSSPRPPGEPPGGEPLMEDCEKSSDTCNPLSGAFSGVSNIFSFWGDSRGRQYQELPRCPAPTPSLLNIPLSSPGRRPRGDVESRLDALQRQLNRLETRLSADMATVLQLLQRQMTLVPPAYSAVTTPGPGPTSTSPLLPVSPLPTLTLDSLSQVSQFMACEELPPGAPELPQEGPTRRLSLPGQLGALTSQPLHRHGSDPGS

Compound: CNCc1ccc(-c2cc(=O)c3ccc4nc(C(F)(F)F)[nH]c4c3o2)cc1 [#2]
- hepatocyte CLint [1, 9]: < 3 µL/min/1e6 cells
- half-life [1, 10]: > 8 h
- Aβ42 content (Aβ42): significantly decreased
- Aβ aggregation in the hippocampus (Aβ): significantly reduced
- brain AUC ([2]; 5 mg/kg): 78.34 ng·h/mL
- plasma Cmax, IN versus PO administration ([2]; 5 mg/kg): approximately 10 fold
- clearance (CL) ([2]; inhaled or intranasal, 5 mg/kg): 43.95 mL/min/kg
- brain maximum concentration ([2]; iv): 18.47 ng/g
- brain AUC ([2]; iv, 2 mg/kg): 84.26 ng·h/mL
- brain Cmax ([2]; iv, 2 mg/kg): 164.38 ng/g
- brain maximum concentration ([2]; po): 27.663 ng/g
- brain AUC ([2]; po, 5 mg/kg): 35.75 ng·h/mL
- brain Cmax ([2]; po, 5 mg/kg): 18.47 ng/g
- clearance ([2]; po, 5 mg/kg): 223 mL/min/kg
- fraction unbound [3]: 0.046
- hepatocyte CLint [4, 9]: < 3 µL/min/1e6 cells
- half-life [4, 10]: > 8 h
- IC50 (hERG): > 10 µM
- p-TrkB Y816 in the hippocampus (p-TrkB Y816): significant activation
- half-life [5]: > 8 h
- Papp (Permeability PAMPA-BBB): 0.135 ×10⁻⁶ cm/s
- Kp (in vivo): ~0.1
- Cmax (in vivo; 5 mg/kg, maximum plasma concentration (Cmax)): 947 ng/mL
- AUC (in vivo; inhaled or intranasal, 5 mg/kg): 1900 ng·h/mL
- MRT (in vivo; inhaled or intranasal, 5 mg/kg): 2.11 h
- bioavailability (in vivo; inhaled or intranasal, 5 mg/kg): 34.3%
- half-life (in vivo; inhaled or intranasal, 5 mg/kg, elimination half-life): 1.54 h
- Cmax (in vivo; inhaled or intranasal, 5 mg/kg, maximum plasma concentration (Cmax)): 947 ng/mL
- AUC (in vivo; iv, 2 mg/kg): 2320 ng·h/mL
- half-life (in vivo; iv, 2 mg/kg, brain t1/2): 1.41 h
- half-life (in vivo; iv, 2 mg/kg, plasma half-life (t½)): 0.84 h
- half-life (in vivo; iv, half-life in the brain): 3.49 h
- AUC (in vivo; po, 5 mg/kg): 405 ng·h/mL
- Cmax (in vivo; po, 5 mg/kg, Cmax): 90.8 ng/mL
- half-life (in vivo; po, 5 mg/kg, brain t1/2): 3.49 h
- half-life (in vivo; po, 5 mg/kg, half-life in the brain): 2.39 h
- Cmax (in vivo; po, 5 mg/kg, maximum plasma concentration (Cmax)): 90.8 ng/mL
- half-life (in vivo; po, 5 mg/kg, plasma half-life (t½)): ~4.09 h
- half-life (in vivo; t1/2): 4.09 ± 2.65 h
- microsomal CLint ([6]; read-out: Stability-Microsomes CL): 10.5 µL/min/mg
- half-life ([6]; read-out: Stability-Microsomes T1/2): 2.22 h
- cerebral cortex volume compared to the Vehicle group (3×Tg mice): elevation trend without statistical significance
- half-life [7]: > 8 h
- solubility (Solubility (pH 7.4; PBS)): 50 µM (≈ 18.7 µg/mL)
- pro-survival EC50 (TrkB): comparable
- fraction unbound [8]: 0.012
